These results are taken from patent publication US9096548B2, “Pyrazine amide compounds” (Boehringer Ingelheim International GmbH, priority 2013, dated 2015).

Structures can show the parent of a compound that is named as a salt.

The target in one experiment is T1, ENaC (Epithelial Sodium Channel) (Mus musculus, UniProt Q61180+Q9WU38+Q9WU39).
T1 construct: Mouse kidney M−1 cells were cultivated in DMEM; endogenous in cells; host or cells: Mouse kidney M-1 cells, cultivated with dexamethasone on transwell filters
T1 sequence (Q61180 1-699): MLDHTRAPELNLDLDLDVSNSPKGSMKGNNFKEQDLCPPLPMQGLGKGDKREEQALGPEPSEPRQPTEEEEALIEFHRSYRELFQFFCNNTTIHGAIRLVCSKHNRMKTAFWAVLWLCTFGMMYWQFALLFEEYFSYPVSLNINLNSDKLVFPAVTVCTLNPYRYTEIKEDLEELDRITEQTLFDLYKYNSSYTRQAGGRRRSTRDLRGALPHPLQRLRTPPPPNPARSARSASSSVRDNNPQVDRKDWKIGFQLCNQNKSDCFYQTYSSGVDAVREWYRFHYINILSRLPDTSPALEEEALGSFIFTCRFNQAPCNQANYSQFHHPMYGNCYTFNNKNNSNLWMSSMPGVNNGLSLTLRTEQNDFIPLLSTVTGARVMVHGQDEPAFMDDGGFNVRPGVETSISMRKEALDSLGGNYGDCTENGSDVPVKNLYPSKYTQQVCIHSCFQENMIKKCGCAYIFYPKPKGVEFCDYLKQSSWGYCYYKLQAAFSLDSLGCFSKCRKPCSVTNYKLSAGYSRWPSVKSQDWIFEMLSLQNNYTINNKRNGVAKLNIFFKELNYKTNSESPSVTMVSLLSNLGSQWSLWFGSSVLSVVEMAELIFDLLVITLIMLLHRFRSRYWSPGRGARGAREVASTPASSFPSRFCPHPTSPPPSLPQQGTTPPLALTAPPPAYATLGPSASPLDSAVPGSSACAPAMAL
T1 sequence (Q9WU38 1-638): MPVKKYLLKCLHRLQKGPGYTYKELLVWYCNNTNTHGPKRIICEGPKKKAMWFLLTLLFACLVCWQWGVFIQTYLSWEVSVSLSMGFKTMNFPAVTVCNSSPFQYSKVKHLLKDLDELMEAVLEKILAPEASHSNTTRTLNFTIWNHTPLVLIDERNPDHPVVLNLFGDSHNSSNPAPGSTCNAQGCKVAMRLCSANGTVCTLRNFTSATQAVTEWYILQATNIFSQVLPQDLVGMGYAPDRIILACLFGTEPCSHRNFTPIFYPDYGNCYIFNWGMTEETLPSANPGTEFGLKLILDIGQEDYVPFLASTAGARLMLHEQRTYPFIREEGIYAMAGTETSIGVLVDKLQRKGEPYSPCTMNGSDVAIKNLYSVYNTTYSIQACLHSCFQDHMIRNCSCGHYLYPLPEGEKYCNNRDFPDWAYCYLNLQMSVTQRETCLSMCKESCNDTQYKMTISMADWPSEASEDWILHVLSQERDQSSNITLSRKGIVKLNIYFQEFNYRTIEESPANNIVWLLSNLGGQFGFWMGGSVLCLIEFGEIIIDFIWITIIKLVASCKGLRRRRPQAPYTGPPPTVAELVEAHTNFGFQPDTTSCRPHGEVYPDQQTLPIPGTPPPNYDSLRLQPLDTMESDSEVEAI
T1 sequence (Q9WU39 1-655): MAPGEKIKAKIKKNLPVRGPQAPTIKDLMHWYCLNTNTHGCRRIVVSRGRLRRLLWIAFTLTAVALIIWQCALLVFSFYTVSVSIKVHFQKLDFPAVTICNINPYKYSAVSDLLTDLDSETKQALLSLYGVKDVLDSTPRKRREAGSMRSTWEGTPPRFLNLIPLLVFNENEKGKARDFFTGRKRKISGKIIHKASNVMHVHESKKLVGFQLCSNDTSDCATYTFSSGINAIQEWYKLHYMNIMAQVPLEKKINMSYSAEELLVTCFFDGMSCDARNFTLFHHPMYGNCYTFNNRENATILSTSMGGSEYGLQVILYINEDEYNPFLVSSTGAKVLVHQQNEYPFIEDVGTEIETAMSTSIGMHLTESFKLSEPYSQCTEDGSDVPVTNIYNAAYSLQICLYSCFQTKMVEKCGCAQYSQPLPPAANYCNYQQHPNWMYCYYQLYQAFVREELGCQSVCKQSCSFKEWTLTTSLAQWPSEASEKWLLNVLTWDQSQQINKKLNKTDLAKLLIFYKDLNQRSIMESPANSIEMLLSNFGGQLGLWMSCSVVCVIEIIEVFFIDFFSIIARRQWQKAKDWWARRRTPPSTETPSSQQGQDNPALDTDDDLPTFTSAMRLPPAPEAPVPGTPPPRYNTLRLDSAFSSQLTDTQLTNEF
The experiment is described as follows: Ussing Chamber assay (short circuit current, amiloride sensitive I_SC). It counts as cell-based.
Conditions: not given
As to the method:
The IC50 values of the example compounds given above were determined in the Ussing Chamber assay.
Ussing Chamber: Mouse kidney M−1 cells were cultivated in DMEM containing 5% FCS and 5 μM dexamethasone for 10 to 12 days on polyester transwell filters. Filters were inserted into a teflon-coated well-plate which fit into the ussing chamber system. Prior to measurement the medium of M−1 cells was replaced with Caco-2 transport buffer (Invitrogen, Germany). During measurements, the Ussing chamber temperature was kept at 37° C. Short circuit currents (I_sc) were measured in the voltage-clamp mode with the software package Lab View for data acquisition and analysis. The transepithelial electrical resistance (TEER) was determined by the application of voltage steps of ±5 mV every 5 sec. Compounds were administered at a final concentration of 3 μM or at increasing concentrations (1-3-10 μM) to the apical solution. At the end of each experiment the amiloride sensitive I_SC was measured by adding 3 μM amiloride to the apical compartment. Results are expressed as inhibition in percent of the amiloride effect or as IC50.
In general, IC50 refers to the midpoint of a concentration-inhibition curve. Compound `Nc1nc(N)c(C(=O)NC2CCC[N+](CCCc3ccc(O)cc3)(CCCc3ccc(O)cc3)C2)nc1Cl` (centres unmarked) [Example 6.15, 3-[(3,5-Diamino-6-chloro-pyrazine-2-carbonyl)-amino]-1,1-bis-[3-(4-hydroxy-phenyl)propyl]-piperidinium trifluoroacetate] had a half-inhibitory concentration (IC50) of 13 nM.

The experiment is the same for the next values; noted with them: Ussing chamber, mouse kidney M-1 cells, short circuit current, compound added to the apical solution; read-out: IC50.
As for `CN1CCC(NC(=O)COc2ccc(CCC[N+]3(CCCc4ccc(OCC(=O)NC5CCN(C)CC5)cc4)CCC[C@H](NC(=O)c4nc(Cl)c(N)nc4N)C3)cc2)CC1` [Example 6.13], the half-maximal inhibitory concentration (IC50) worked out at 15 nM. Same read-out and setting: then `CN(C)CCNC(=O)COc1ccc(CCC[N+]2(CCCc3ccc(OCC(=O)NCCN(C)C)cc3)CCC[C@H](NC(=O)c3nc(Cl)c(N)nc3N)C2)cc1` [Example 6.14], with 45 nM; and `COCCN(C)C(=O)COc1ccc(CCC[N+]2(CCCc3ccc(OCC(=O)N(C)CCOC)cc3)CCC[C@H](NC(=O)c3nc(Cl)c(N)nc3N)C2)cc1` [Example 6.16], with 42 nM.

As to `CN(Cc1ccncc1)C(=O)COc1ccc(CCC[N+]2(CCCc3ccc(OCC(=O)N(C)Cc4ccncc4)cc3)CCC[C@H](NC(=O)c3nc(Cl)c(N)nc3N)C2)cc1` [Example 6.17], the IC50 was found to be 21 nM. For the compound `Nc1nc(N)c(C(=O)N[C@H]2CCC[N+](CCCc3ccc(OCC(=O)NCCCO)cc3)(CCCc3ccc(OCC(=O)NCCCO)cc3)C2)nc1Cl` [Example 6.18], the half-inhibitory concentration (IC50) was found to be 13 nM. On to `Nc1nc(N)c(C(=O)N[C@H]2CCC[N+](CCCc3ccc(OCC(=O)NCC(O)CO)cc3)(CCCc3ccc(OCC(=O)NCC(O)CO)cc3)C2)nc1Cl` (some centres unmarked) [Example 6.19], for which the IC50 is 30 nM. `Nc1nc(N)c(C(=O)N[C@H]2CCC[N+](CCCc3ccc(OCC(=O)NC(CO)CO)cc3)(CCCc3ccc(OCC(=O)NC(CO)CO)cc3)C2)nc1Cl` [Example 6.20]: the half-maximal inhibitory concentration (IC50) stood at 46 nM. On to `COCCN(CCOC)C(=O)COc1ccc(CCC[N+]2(CCCc3ccc(OCC(=O)N(CCOC)CCOC)cc3)CCC[C@H](NC(=O)c3nc(Cl)c(N)nc3N)C2)cc1` [Example 6.21], for which the IC50 is 23 nM.

Take `CN(Cc1ccccn1)C(=O)COc1ccc(CCC[N+]2(CCCc3ccc(OCC(=O)N(C)Cc4ccccn4)cc3)CCC[C@H](NC(=O)c3nc(Cl)c(N)nc3N)C2)cc1` [Example 6.22]: the IC50 stood at 18 nM.

Take `Nc1nc(N)c(C(=O)N[C@H]2CCC[N+](CCCc3ccc(OCC(=O)NC4CCS(=O)(=O)C4)cc3)(CCCc3ccc(OCC(=O)NC4CCS(=O)(=O)C4)cc3)C2)nc1Cl` (some centres unmarked) [Example 6.23]: the IC50 was found to be 35 nM. On to `Nc1nc(N)c(C(=O)N[C@H]2CCC[N+](CCCc3ccc(OCC(=O)N4CCS(=O)(=O)CC4)cc3)(CCCc3ccc(OCC(=O)N4CCS(=O)(=O)CC4)cc3)C2)nc1Cl` [Example 6.24], for which the IC50 was 47 nM. Consider `Nc1nc(N)c(C(=O)N[C@H]2CCC[N+](CCCc3ccc(OCC(=O)NCCCCO)cc3)(CCCc3ccc(OCC(=O)NCCCCO)cc3)C2)nc1Cl` [Example 6.25], for which the IC50 was determined as 14 nM. Turning to `CC(O)CN(C)C(=O)COc1ccc(CCC[N+]2(CCCc3ccc(OCC(=O)N(C)CC(C)O)cc3)CCC[C@H](NC(=O)c3nc(Cl)c(N)nc3N)C2)cc1` (some centres unmarked) [Example 6.26], the IC50 was 70 nM. In the case of `CN(Cc1cccnc1)C(=O)COc1ccc(CCC[N+]2(CCCc3ccc(OCC(=O)N(C)Cc4cccnc4)cc3)CCC[C@H](NC(=O)c3nc(Cl)c(N)nc3N)C2)cc1` [Example 6.27], the 50% inhibitory concentration (IC50) stood at 17 nM. In the case of `CN(C)C(=O)CNC(=O)COc1ccc(CCC[N+]2(CCCc3ccc(OCC(=O)NCC(=O)N(C)C)cc3)CCC[C@H](NC(=O)c3nc(Cl)c(N)nc3N)C2)cc1` [Example 6.28], the IC50 stood at 41 nM.

For the compound `CN(CCC#N)C(=O)COc1ccc(CCC[N+]2(CCCc3ccc(OCC(=O)N(C)CCC#N)cc3)CCC[C@H](NC(=O)c3nc(Cl)c(N)nc3N)C2)cc1` [Example 6.29], the 50% inhibitory concentration (IC50) is 105 nM. With `Nc1nc(N)c(C(=O)N[C@H]2CCC[N+](CCCc3ccc(OCC(=O)N4CC[S+]([O-])CC4)cc3)(CCCc3ccc(OCC(=O)N4CC[S+]([O-])CC4)cc3)C2)nc1Cl` [Example 6.30], the IC50 was found to be 209 nM. For `N#CCNC(=O)COc1ccc(CCC[N+]2(CCCc3ccc(OCC(=O)NCC#N)cc3)CCC[C@H](NC(=O)c3nc(Cl)c(N)nc3N)C2)cc1` [Example 6.31], the IC50 came out at 18 nM. Turning to `CN(C)C(=O)CN(C)C(=O)COc1ccc(CCC[N+]2(CCCc3ccc(OCC(=O)N(C)CC(=O)N(C)C)cc3)CCC[C@H](NC(=O)c3nc(Cl)c(N)nc3N)C2)cc1` [Example 6.32], the IC50 was found to be 232 nM. Regarding `Cn1ccnc1CNC(=O)COc1ccc(CCC[N+]2(CCCc3ccc(OCC(=O)NCc4nccn4C)cc3)CCC[C@H](NC(=O)c3nc(Cl)c(N)nc3N)C2)cc1` [Example 6.33], the IC50 was determined as 21 nM. Take `COCCCN(C)C(=O)COc1ccc(CCC[N+]2(CCCc3ccc(OCC(=O)N(C)CCCOC)cc3)CCC[C@H](NC(=O)c3nc(Cl)c(N)nc3N)C2)cc1` [Example 6.34]: the 50% inhibitory concentration (IC50) came out at 44 nM. Take `Nc1nc(N)c(C(=O)N[C@H]2CCC[N+](CCCc3ccc(OCC(=O)NCCN4CCCC4=O)cc3)(CCCc3ccc(OCC(=O)NCCN4CCCC4=O)cc3)C2)nc1Cl` [Example 6.35]: the 50% inhibitory concentration (IC50) stood at 16 nM.

As for `Nc1nc(N)c(C(=O)N[C@H]2CCC[N+](CCCc3ccc(OCC(=O)N4CCC(O)(CO)CC4)cc3)(CCCc3ccc(OCC(=O)N4CCC(O)(CO)CC4)cc3)C2)nc1Cl` [Example 6.36], the concentration for half-maximal inhibition (IC50) was 67 nM. Turning to `CS(=O)(=O)CCNC(=O)COc1ccc(CCC[N+]2(CCCc3ccc(OCC(=O)NCCS(C)(=O)=O)cc3)CCC[C@H](NC(=O)c3nc(Cl)c(N)nc3N)C2)cc1` [Example 6.37], the concentration for half-maximal inhibition (IC50) came to 28 nM.

In the case of `Nc1nc(N)c(C(=O)N[C@H]2CCC[N+](CCCc3ccc(OCC(=O)NCCO)cc3)(CCCc3ccc(OCC(=O)NCCO)cc3)C2)nc1Cl` [Example 6.38], the IC50 was 45 nM.

For the compound `Nc1nc(N)c(C(=O)N[C@H]2CCC[N+](CCCc3ccc(OCC(=O)NC(CO)c4cccnc4)cc3)(CCCc3ccc(OCC(=O)NC(CO)c4cccnc4)cc3)C2)nc1Cl` (some centres unmarked) [Example 6.39], the 50% inhibitory concentration (IC50) is 11 nM. The same measure, in the same setting: for `Cn1cnc(CNC(=O)COc2ccc(CCC[N+]3(CCCc4ccc(OCC(=O)NCc5cn(C)cn5)cc4)CCC[C@H](NC(=O)c4nc(Cl)c(N)nc4N)C3)cc2)c1` [Example 6.40] the value was 21 nM; for `Cn1cncc1CNC(=O)COc1ccc(CCC[N+]2(CCCc3ccc(OCC(=O)NCc4cncn4C)cc3)CCC[C@H](NC(=O)c3nc(Cl)c(N)nc3N)C2)cc1` [Example 6.41], 18 nM.
